US12071469B2, “Peptide compounds for suppressing inflammation” (Duke University, priority 2011, dated 2024)

Experiments:
[1] = test system: mice with traumatic brain injury; experiment: Rotorod vestibulomotor function after traumatic brain injury; type: in vivo, mouse; details: 0.05 mg/kg iv at 2 h and 6 h after traumatic brain injury
Procedure: An experimental murine model for traumatic brain injury was developed. Laskowitz, et al. (2010) J. Neurotrauma, 27:1983-95. Male mice (age 12-14 weeks) were anesthetized with 4.3% isoflurane in oxygen in an anesthesia induction box for 90 seconds. The trachea was intubated and the lungs mechanically ventilated with 1.4% isoflurane in a 50/50 mixture of oxygen and nitrogen. Body temperature was maintained at 37° C. using surface heating/cooling. The top of the skull was exposed by a midline incision to identify anatomical landmarks, and a concave 3-mm metallic disc was secured to the skull surface with an adhesive, directly midline and just caudal to the bregma. The disc diffused the energy of impact and reduced the incidence of depressed skull fracture to less than 10%. After general anesthesia, mice were positioned in a stereotactic device and the skull was exposed. A pneumatic impactor (diameter: 2.0 mm; available from Air-Power, Inc.) discharged at 6.8±0.2 m/s with a head displacement of 3 mm was used to deliver a single midline impact to the disc surface.
An experimental procedure for measuring neurological deficits was developed. An automated rotorod (available from Ugo Basile North America, Inc.) was used to assess vestibulomotor function. On the day before experimental induction of a neurological condition or injury (such as, for example, traumatic brain injury or intracerebral hemorrhage as described above), mice under went two consecutive conditioning trials at a set rotational speed (16 revolutions per minute) for 60 seconds followed by three additional trials with an accelerating rotational speed. The average time to fall from the rotating cylinder in the latter three trials was recorded as baseline latency. After injury, mice under went consecutive daily testing with three trials of accelerating rotational speed (intertribal interval of 15 minutes). Average latency to fall from the rod was recorded, and mice unable to grip the rod were scored with a latency of 0 seconds.
Groups of mice received either an ApoE mimetic peptide (SEQ ID NO:3; 0.05 mg/kg or 0.2 mg/kg) or carrier (saline) by intravenous tail vein injection at 2 hours and again at 6 hours after traumatic brain injury induced as described in Example 3. Each mouse was tested for vestibulomotor function by rotorod latency measured before and after injury, as described in Example 3.
Groups of mice received either an ApoE mimetic peptide (SEQ ID NO:4; 0.05 mg/kg) or carrier (saline) by intravenous tail vein injection at 2 hours and again at 6 hours after traumatic brain injury induced as described in Example 3. Each mouse was tested for vestibulomotor function by rotorod latency measured before and after injury, as described in Example 3. […]

[2] = VSRRR quantitation in mouse plasma by LC/SIM/MS after intravenous dosing; type: in vivo; details: IV single dose 0.8 mg/kg
Procedure: The amount of the ApoE mimetic peptide VSRRR (SEQ ID NO:4) in blood plasma and CNS was determined as follows:
VSRRR Quantitation in Mouse Plasma Using LC/Selected Ion Monitoring (SIM)/MS
48 μL aliquots of mouse plasma were measured into the wells of a 2 mL 96-well plate. 6 μL of a stable isotope labeled (SIL) form of the VSRRR peptide (“VSRRR[10]”; SEQ ID NO:4) (5 picomoles/μL in 50 mM ammonium bicarbonate, pH 8, buffer) was added. 6 μL of a synthetic form of the VSRRR peptide (“VSRRR”; SEQ ID NO:4) in 50 mM Ammonium bicarbonate was added for standards and quality controls (QCs) and an equivalent volume of 50 mM ammonium bicarbonate was added to all wells containing mouse PK samples. 1140 μL of 50 mM ammonium formate, pH 10, was added for a final volume of 1200 μL. Salts and proteins were removed using OASIS® HLB Solid Phase Extraction (SPE) protocol as follows: • 1. 500 μL methanol (MeOH) through each well×1. • 2. 500 μL 25% acetonitrile (ACN)/1% trifluoroacetic acid (TFA)×1 (as pre-elution). • 3. 500 μL MeOH×1 • 4. 500 μL 50 mM ammonium formate×2 • 5. 1 mL of each sample mixture was pipetted directly onto an OASIS® HLB plate (hydrophilic-lipophilic-balanced reversed-phase sorbent; Waters Corp.) into a corresponding well and slowly vacuumed through • 6. 500 μL 50 mM ammonium formate×1 • 7. 500 μL 10% ACN/50 mM ammonium formate×2 • 8. 500 μL 25% ACN/50 mM ammonium formate×1 • 9. Removed plate collecting washes/flowthrough, and put in collection plate • 10. Eluted with 100 μL 25% ACN/1% TFA×3, eluting with vacuum slowly. The final eluate should be approximately 300 μL.
The SPE eluate was dried using a vacuum centrifuge. The sample was reconstituted in 50 μL of buffer containing 1% acetonitrile (ACN), 0.1% trifluoroacetic acid (TFA), and 0.02% heptafluorobutyric acid (HFBA). Two microliters of reconstituted sample was analyzed by nanoscale capillary LC coupled to a high resolution, accurate mass tandem mass spectrometer. Specifically, the electrospray ionization source with NanoLockSpray™ (Waters Corp.) and nanoAcquity UPLC® system (Waters Corp.) were used with a nanoscale LC column (1.7 μm BEH130 C18 150 μm ID×100 mm long; Waters Corp.), 10-min gradient of 3% to 19% ACN with 0.1% formic acid (mobile phase A=0.1% formic acid/0.001% HFBA) with a total LC run time of 16.5 minutes, flow rate=1.8 μL/min and 35° C. column temperature. A SYNAPT™ G1 HDMS™ high resolution mass spectrometer (Waters Corp.) was used. Full Scan MS data was obtained over the mass region of 50-4000 Da using an Enhanced Duty Cycle scan function at 360 Da.
VSRRR and VSRRR[10] amounts were quantitated by measuring the area under the curve (AUC) of the Selected Ion Chromatograms of the doubly charged ions at high resolution (m/z 357.7 and 362.7). The final VSRRR quantitation amount was determined using the ratio of the AUCs (VSRRR/VSRRR[10]). The ratios from 5 animals were averaged per time point and calibration standards were used to generate a standard curve. Duplicate aliquots of QC samples were analyzed by LC/MS in triplicate to determine analytical reproducibility.
The lower level of quantitation (LLOQ) is indicated.

## Ac-VSRRR-NH2 [VR-55, Ac-VSRRR-NH2]
[1]
  durability of effect on rotorod latency: durable through the five-day testing period
[1]; FIG. 3
  vestibulomotor performance (rotorod latency) compared to carrier: improved vestibulomotor performance
[2]; 1 min
  Ratio Light/Heavy across 5 animals: 0.079
  amount of peptide in plasma: 32.2 fmol/µL
[2]; 3 min
  Ratio Light/Heavy across 5 animals: 0.134
  amount of peptide in plasma: 51.8 fmol/µL
[2]; 5 min
  Ratio Light/Heavy across 5 animals: 0.077
  amount of peptide in plasma: 31.7 fmol/µL
[2]; 10 min
  Ratio Light/Heavy across 5 animals: 0.058
  amount of peptide in plasma: 24.9 fmol/µL
[2]; 15 min
  Ratio Light/Heavy across 5 animals: 0.044
  amount of peptide in plasma: 19.6 fmol/µL
[2]; 30 min
  Ratio Light/Heavy across 5 animals: 0.016
  amount of peptide in plasma: 9.9 fmol/µL
[2]; 60 min
  Ratio Light/Heavy across 5 animals: 0.012
  amount of peptide in plasma: 8.5 fmol/µL
